# Measurements published in patent publication US12252492B2, “Substituted fused pyrrolo-diazepinones and uses thereof” (Northwestern University, priority 2018, dated 2025).
# What was measured:
# Type in all cases: cell-based, human
# [1] = test system: NCI-H23; assay: NCI60 one-dose screen, NCI-H23; conditions: NCI-H23 (Non-Small Cell Lung Cancer); NCI 60 one-dose, 10^-5 M
# Protocol: (§1) Anti-cancer activity screening of all compounds was performed by the NCI Developmental Therapeutics Program (DTP) through their NCI60 screening initiative. Assay details can be found at the website dtp.cancer.gov/discovery_development/nci-60/methodology.htm. Information from this website is reproduced here for convenience.
# (§2) As of early 2007 all compounds submitted to the NCI 60 Cell screen are tested initially at a single high dose (10^-5 M) in the full NCI 60 cell panel. Only compounds which satisfy pre-determined threshold inhibition criteria in a minimum number of cell lines will progress to the full 5-dose assay. The threshold inhibition criteria for progression to the 5-dose screen was selected to efficiently capture compounds with anti-proliferative activity based on careful analysis of historical DTP screening data. The threshold criteria may be updated as additional data becomes available.
# (§3) The One-dose data will be reported as a mean graph of the percent growth of treated cells and will be similar in appearance to mean graphs from the 5-dose assay. […]
# (§4) Following drug addition, the plates are incubated for an additional 48 h at 37° C., 5% CO2, 95% air, and 100% relative humidity. […] Bound stain is subsequently solubilized with 10 mM trizma base, and the absorbance is read on an automated plate reader at a wavelength of 515 nm. […]
# [2] = test system: MALME-3M; assay: NCI60 one-dose screen, MALME-3M; conditions: MALME-3M (Melanoma); NCI 60 one-dose, 10^-5 M
# Protocol: as §1, §2, §3, §4
# [3] = test system: NCI-H322M; assay: NCI60 one-dose screen, NCI-H322M; conditions: NCI-H322M (Non-Small Cell Lung Cancer); NCI 60 one-dose, 10^-5 M
# Protocol: as §1, §2, §3, §4
# [4] = test system: SK-MEL-28; assay: NCI60 one-dose screen, SK-MEL-28; conditions: SK-MEL-28 (Melanoma); NCI 60 one-dose, 10^-5 M
# Protocol: as §1, §2, §3, §4
# [5] = test system: EKVX; assay: NCI60 one-dose screen, EKVX; conditions: EKVX (Non-Small Cell Lung Cancer); NCI 60 one-dose, 10^-5 M
# Protocol: as §1, §2, §3, §4
# [6] = test system: SNB-19; assay: NCI60 one-dose screen, SNB-19; conditions: SNB-19 (CNS Cancer); NCI 60 one-dose, 10^-5 M
# Protocol: as §1, §2, §3, §4
# [7] = test system: A549/ATCC; assay: NCI60 one-dose screen, A549; conditions: A549/ATCC (Non-Small Cell Lung Cancer); NCI 60 one-dose, 10^-5 M
# Protocol: as §1, §2
# The One-dose data will be reported as a mean graph of the percent growth of treated cells and will be similar in appearance to mean graphs from the 5-dose assay. The number reported for the One-dose assay is growth relative to the no-drug control, and relative to the time zero number of cells. This allows detection of both growth inhibition (values between 0 and 100) and lethality (values less than 0). This is the same as for the 5-dose assay, described below. For example, a value of 100 means no growth inhibition. A value of 40 would mean 60% growth inhibition. A value of 0 means no net growth over the course of the experiment. A value of −40 would mean 40% lethality. A value of −100 means all cells are dead. Information from the One-dose mean graph is available for COMPARE analysis.
# The human tumor cell lines of the cancer screening panel are grown in RPMI 1640 medium containing 5% fetal bovine serum and 2 mM L-glutamine. For a typical screening experiment, cells are inoculated into 96 well microtiter plates in 100 μL at plating densities ranging from 5,000 to 40,000 cells/well depending on the doubling time of individual cell lines. After cell inoculation, the microtiter plates are incubated at 37° C., 5% CO2, 95% air and 100% relative humidity for 24 h prior to addition of experimental drugs.
# After 24 h, two plates of each cell line are fixed in situ with TCA, to represent a measurement of the cell population for each cell line at the time of drug addition (Tz). Experimental drugs are solubilized in dimethyl sulfoxide at 400-fold the desired final maximum test concentration and stored frozen prior to use. At the time of drug addition, an aliquot of frozen concentrate is thawed and diluted to twice the desired final maximum test concentration with complete medium containing 50 μg/ml gentamicin. Additional four, 10-fold or ½ log serial dilutions are made to provide a total of five drug concentrations plus control. Aliquots of 100 μl of these different drug dilutions are added to the appropriate microtiter wells already containing 100 μl of medium, resulting in the required final drug concentrations.
# Following drug addition, the plates are incubated for an additional 48 h at 37° C., 5% CO2, 95% air, and 100% relative humidity. For adherent cells, the assay is terminated by the addition of cold TCA. Cells are fixed in situ by the gentle addition of 50 μl of cold 50% (w/v) TCA (final concentration, 10% TCA) and incubated for 60 minutes at 4° C. The supernatant is discarded, and the plates are washed five times with tap water and air dried. Sulforhodamine B (SRB) solution (100 μl) at 0.4% (w/v) in 1% acetic acid is added to each well, and plates are incubated for 10 minutes at room temperature. After staining, unbound dye is removed by washing five times with 1% acetic acid and the plates are air dried. Bound stain is subsequently solubilized with 10 mM trizma base, and the absorbance is read on an automated plate reader at a wavelength of 515 nm. […]
# [8] = test system: COLO 205; assay: NCI60 one-dose screen, COLO 205; conditions: COLO 205 (Colon Cancer); NCI 60 one-dose, 10^-5 M
# Protocol: as §1, §2, §3, §4
# [9] = test system: OVCAR-4; assay: NCI60 one-dose screen, OVCAR-4; conditions: OVCAR-4 (Ovarian Cancer); NCI 60 one-dose, 10^-5 M
# Protocol: as §1, §2, §3, §4
# [10] = test system: HCT-116; assay: NCI60 one-dose screen, HCT-116; conditions: HCT-116 (Colon Cancer); NCI 60 one-dose, 10^-5 M
# Protocol: as §1, §2, §3, §4
# [11] = test system: NCI-H522; assay: NCI60 one-dose screen, NCI-H522; conditions: NCI-H522 (Non-Small Cell Lung Cancer); NCI 60 one-dose, 10^-5 M
# Protocol: as §1, §2, §3, §4
# [12] = test system: HOP-92; assay: NCI60 one-dose screen, HOP-92; conditions: HOP-92 (Non-Small Cell Lung Cancer); NCI 60 one-dose, 10^-5 M
# Protocol: as §1, §2, §3, §4
# [13] = test system: HOP-62; assay: NCI60 one-dose screen, HOP-62; conditions: HOP-62 (Non-Small Cell Lung Cancer); NCI 60 one-dose, 10^-5 M
# Protocol: as §1, §2, §3, §4
# [14] = test system: MOLT-4; assay: NCI60 one-dose screen, MOLT-4; conditions: MOLT-4 (Leukemia); NCI 60 one-dose, 10^-5 M
# Protocol: as §1, §2, §3, §4
# [15] = test system: MDA-MB-468; assay: NCI60 one-dose screen, MDA-MB-468; conditions: MDA-MB-468 (Breast Cancer); NCI 60 one-dose, 10^-5 M
# Protocol: as §1, §2, §3, §4
# [16] = test system: SF-295; assay: NCI60 one-dose screen, SF-295; conditions: SF-295 (CNS Cancer); NCI 60 one-dose, 10^-5 M
# Protocol: as §1, §2, §3, §4
# [17] = test system: SF-268; assay: NCI60 one-dose screen, SF-268; conditions: SF-268 (CNS Cancer); NCI 60 one-dose, 10^-5 M
# Protocol: as §1, §2, §3, §4
SMILES,Growth Percent [1],Growth Percent [2],Growth Percent [3],Growth Percent [4],Growth Percent [5],Growth Percent [6],Growth Percent [7],Growth Percent [8],Growth Percent [9],Growth Percent [10],Growth Percent [11],Growth Percent [12],Growth Percent [13],Growth Percent [14],Growth Percent [15],Growth Percent [16],Growth Percent [17]
CC(=O)N1c2ccccc2NC2=C(C(=O)N(C)C2(C)C)C1c1ccccc1 (stereo not shown) [NUCC-60872],50.21%,44.26%,73.36%,56.02%,61.53%,39.87%,80.32%,14.23%,55.16%,24.91%,18.58%,37.54%,61.59%,33.27%,19.19%,45.97%,42.99%
CC(=O)N1c2ccccc2NC2=C(C(=O)N(Cc3ccccc3)C2(C)C)C1c1ccco1 (stereo not shown) [NUCC-608455],20.85%,69.89%,44.61%,57.26%,35.37%,23.61%,22.02%,16.77%,48.83%,7.52%,21.79%,21.07%,33.09%,28.58%,−1.86%,−0.75%,42.68%
